Data published in the NIST ThermoML archive (doi:10.1016/j.tca.2015.06.017).

Test: xn = mol fraction of the nth substance listed
Conditions: Liquid, Vibrating tube method

CCC(C)Cl (configuration not stated) [2-chlorobutane] + CCCCCCC
mass density [kg/m3]
Conditions	313.15 K	323.15 K
100 kPa, x2 = 0.0524	–	825.09
100 kPa, x2 = 0.1018	–	813.02
100 kPa, x2 = 0.1968	–	791.28
100 kPa, x2 = 0.3006	–	769.26
100 kPa, x2 = 0.4029	–	749.24
100 kPa, x2 = 0.5017	–	731.3
100 kPa, x2 = 0.6008	–	714.64
100 kPa, x2 = 0.7023	–	698.73
100 kPa, x2 = 0.7977	–	684.8
100 kPa, x2 = 0.8986	–	671.19
100 kPa, x2 = 0.952	–	664.27
2000 kPa, x2 = 0.0524	–	827.83
2000 kPa, x2 = 0.1018	–	815.67
2000 kPa, x2 = 0.1968	–	793.94
2000 kPa, x2 = 0.3006	–	771.89
2000 kPa, x2 = 0.4029	–	751.76
2000 kPa, x2 = 0.5017	–	733.83
2000 kPa, x2 = 0.6008	–	717.08
2000 kPa, x2 = 0.7023	–	701.07
2000 kPa, x2 = 0.7977	–	687.1
2000 kPa, x2 = 0.8986	–	673.45
2000 kPa, x2 = 0.952	–	666.5
5000 kPa, x2 = 0.0524	–	831.91
5000 kPa, x2 = 0.1018	–	819.82
5000 kPa, x2 = 0.1968	–	797.9
5000 kPa, x2 = 0.3006	–	775.73
5000 kPa, x2 = 0.4029	–	755.62
5000 kPa, x2 = 0.5017	–	737.6
5000 kPa, x2 = 0.6008	–	720.78
5000 kPa, x2 = 0.7023	–	704.73
5000 kPa, x2 = 0.7977	–	690.71
5000 kPa, x2 = 0.8986	–	677.02
5000 kPa, x2 = 0.952	–	670.04
7000 kPa, x2 = 0.0524	–	834.54
7000 kPa, x2 = 0.1018	–	822.46
7000 kPa, x2 = 0.1968	–	800.49
7000 kPa, x2 = 0.3006	–	778.37
7000 kPa, x2 = 0.4029	–	758.11
7000 kPa, x2 = 0.5017	–	740.05
7000 kPa, x2 = 0.6008	–	723.19
7000 kPa, x2 = 0.7023	–	707.1
7000 kPa, x2 = 0.7977	–	693.06
7000 kPa, x2 = 0.8986	–	679.34
7000 kPa, x2 = 0.952	–	672.34
10000 kPa, x2 = 0.0524	–	838.27
10000 kPa, x2 = 0.1018	–	826.08
10000 kPa, x2 = 0.1968	–	804.11
10000 kPa, x2 = 0.3006	–	781.87
10000 kPa, x2 = 0.4029	–	761.62
10000 kPa, x2 = 0.5017	–	743.56
10000 kPa, x2 = 0.6008	–	726.61
10000 kPa, x2 = 0.7023	–	710.43
10000 kPa, x2 = 0.7977	–	696.28
10000 kPa, x2 = 0.8986	–	682.48
10000 kPa, x2 = 0.952	–	675.45
20000 kPa, x2 = 0.0524	–	849.8
20000 kPa, x2 = 0.1018	–	837.53
20000 kPa, x2 = 0.1968	–	815.4
20000 kPa, x2 = 0.3006	–	792.88
20000 kPa, x2 = 0.4029	–	772.5
20000 kPa, x2 = 0.5017	762.72	754.11
20000 kPa, x2 = 0.6008	745.36	737
20000 kPa, x2 = 0.7023	728.79	720.73
20000 kPa, x2 = 0.7977	714.29	706.35
20000 kPa, x2 = 0.8986	699.96	692.38
20000 kPa, x2 = 0.952	692.74	685.27
30000 kPa, x2 = 0.0524	869.48	860.04
30000 kPa, x2 = 0.1018	856.99	847.72
30000 kPa, x2 = 0.1968	834.35	825.47
30000 kPa, x2 = 0.3006	811.43	802.73
30000 kPa, x2 = 0.4029	790.51	782.02
30000 kPa, x2 = 0.5017	771.71	763.53
30000 kPa, x2 = 0.6008	754.16	746.23
30000 kPa, x2 = 0.7023	737.41	729.67
30000 kPa, x2 = 0.7977	722.74	715.26
30000 kPa, x2 = 0.8986	708.23	700.97
30000 kPa, x2 = 0.952	700.93	693.82
40000 kPa, x2 = 0.0524	878.27	869.34
40000 kPa, x2 = 0.1018	865.7	856.96
40000 kPa, x2 = 0.1968	842.91	834.4
40000 kPa, x2 = 0.3006	819.81	811.6
40000 kPa, x2 = 0.4029	798.72	790.72
40000 kPa, x2 = 0.5017	779.77	772.1
40000 kPa, x2 = 0.6008	762.09	754.63
40000 kPa, x2 = 0.7023	745.16	737.89
40000 kPa, x2 = 0.7977	730.38	723.24
40000 kPa, x2 = 0.8986	715.74	708.82
40000 kPa, x2 = 0.952	708.38	701.63
50000 kPa, x2 = 0.0524	886.46	877.82
50000 kPa, x2 = 0.1018	873.81	865.47
50000 kPa, x2 = 0.1968	850.85	842.71
50000 kPa, x2 = 0.3006	827.58	819.72
50000 kPa, x2 = 0.4029	806.37	798.76
50000 kPa, x2 = 0.5017	787.33	779.9
50000 kPa, x2 = 0.6008	769.48	762.28
50000 kPa, x2 = 0.7023	752.43	745.43
50000 kPa, x2 = 0.7977	737.47	730.63
50000 kPa, x2 = 0.8986	722.77	716.08
50000 kPa, x2 = 0.952	715.34	708.79
60000 kPa, x2 = 0.0524	894.03	885.83
60000 kPa, x2 = 0.1018	881.29	873.29
60000 kPa, x2 = 0.1968	858.17	850.37
60000 kPa, x2 = 0.3006	834.83	827.3
60000 kPa, x2 = 0.4029	813.47	806.2
60000 kPa, x2 = 0.5017	794.34	787.21
60000 kPa, x2 = 0.6008	776.43	769.46
60000 kPa, x2 = 0.7023	759.35	752.51
60000 kPa, x2 = 0.7977	744.21	737.59
60000 kPa, x2 = 0.8986	729.29	722.89
60000 kPa, x2 = 0.952	721.82	715.52
65000 kPa, x2 = 0.0524	897.67	889.59
65000 kPa, x2 = 0.1018	884.92	877.02
65000 kPa, x2 = 0.1968	861.74	854.06
65000 kPa, x2 = 0.3006	838.38	830.95
65000 kPa, x2 = 0.4029	816.9	809.85
65000 kPa, x2 = 0.5017	797.7	790.81
65000 kPa, x2 = 0.6008	779.7	772.98
65000 kPa, x2 = 0.7023	762.47	755.89
65000 kPa, x2 = 0.7977	747.31	740.95
65000 kPa, x2 = 0.8986	732.32	726.04
65000 kPa, x2 = 0.952	724.77	718.69
